{"source": "PubChem BioAssay AID1845196", "about": "(Molecular Pharmacology Branch, DTP, NCI, 2023);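 also: spheroids exposed to compounds for 7 days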", "test_system": "292921-168-R tumor spheroid viability", "assay": "Anticancer human tumor 292921-168-R patient-derived pancreatic carcinoma cell line growth inhibition", "conditions": "spheroids with HUVEC and MSC; for IC50: curve of first compound; for viability, T/C: stronger effect = lower value", "in_short": "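Complex tumor spheroids combined malignant cells with endothelial cells and mesenchymal stem cells. DNA-damaging drugs and DNA repair inhibitors were tested alone and in combination, at half-log dilutions down from clinical Cmax (top 10 microM if Cmax unknown), 0.25% DMSO final.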", "data": [{"smiles": "CC1COCCN1c1cc(-c2ccnn2C)c2ccnc(-c3ccn[nH]3)c2n1", "note": "(stereo not given) + COc1cc2c(cc1O)CCNC21CSC2c3c(OC(C)=O)c(C)c4c(c3C(COC1=O)N1C(O)C3Cc5cc(C)c(OC)c(O)c5C(C21)N3C)OCO4", "values": [{"measurement": "IC50", "setting": "second compound 30 pM", "value": "< 31.6", "unit": "nM"}, {"measurement": "IC50", "setting": "second compound 94.9 pM", "value": "< 31.6", "unit": "nM"}, {"measurement": "IC50", "setting": "second compound 0.0003 µM", "value": "< 31.6", "unit": "nM"}, {"measurement": "IC50", "setting": "second compound 0.000949 µM", "value": "< 31.6", "unit": "nM"}, {"measurement": "IC50", "setting": "second compound 0.003 µM", "value": "< 31.6", "unit": "nM"}, {"measurement": "viability, T/C", "setting": "second compound 30 pM, first compound 0.0316 µM", "value": 17.2, "unit": "%"}, {"measurement": "viability, T/C", "setting": "second compound 30 pM, first compound 0.1 µM", "value": 10.9, "unit": "%"}, {"measurement": "viability, T/C", "setting": "second compound 30 pM, first compound 0.316 µM", "value": 10.4, "unit": "%"}, {"measurement": "viability, T/C", "setting": "second compound 30 pM, first compound 1 µM", "value": 13, "unit": "%"}, {"measurement": "viability, T/C", "setting": "second compound 30 pM, first compound 3.16 µM", "value": 14.3, "unit": "%"}, {"measurement": "viability, T/C", "setting": "second compound 30 pM, first compound 10 µM", "value": 16.4, "unit": "%"}, {"measurement": "viability, T/C", "setting": "second compound 94.9 pM, first compound 0.0316 µM", "value": 10.2, "unit": "%"}, {"measurement": "viability, T/C", "setting": "second compound 94.9 pM, first compound 0.1 µM", "value": 7.28, "unit": "%"}, {"measurement": "viability, T/C", "setting": "second compound 94.9 pM, first compound 0.316 µM", "value": 8.41, "unit": "%"}, {"measurement": "viability, T/C", "setting": "second compound 94.9 pM, first compound 1 µM", "value": 11.8, "unit": "%"}, {"measurement": "viability, T/C", "setting": "second compound 94.9 pM, first compound 3.16 µM", "value": 13.9, "unit": "%"}, {"measurement": "viability, T/C", "setting": "second compound 94.9 pM, first compound 10 µM", "value": 16.9, "unit": "%"}, {"measurement": "viability, T/C", "setting": "second compound 0.0003 µM, first compound 0.0316 µM", "value": 4.54, "unit": "%"}, {"measurement": "viability, T/C", "setting": "second compound 0.0003 µM, first compound 0.1 µM", "value": 4.77, "unit": "%"}, {"measurement": "viability, T/C", "setting": "second compound 0.0003 µM, first compound 0.316 µM", "value": 5.09, "unit": "%"}, {"measurement": "viability, T/C", "setting": "second compound 0.0003 µM, first compound 1 µM", "value": 8.72, "unit": "%"}, {"measurement": "viability, T/C", "setting": "second compound 0.0003 µM, first compound 3.16 µM", "value": 10.4, "unit": "%"}, {"measurement": "viability, T/C", "setting": "second compound 0.0003 µM, first compound 10 µM", "value": 12.7, "unit": "%"}, {"measurement": "viability, T/C", "setting": "second compound 0.000949 µM, first compound 0.0316 µM", "value": 1.76, "unit": "%"}, {"measurement": "viability, T/C", "setting": "second compound 0.000949 µM, first compound 0.1 µM", "value": 1.36, "unit": "%"}, {"measurement": "viability, T/C", "setting": "second compound 0.000949 µM, first compound 0.316 µM", "value": 2.19, "unit": "%"}, {"measurement": "viability, T/C", "setting": "second compound 0.000949 µM, first compound 1 µM", "value": 2.16, "unit": "%"}, {"measurement": "viability, T/C", "setting": "second compound 0.000949 µM, first compound 3.16 µM", "value": 1.68, "unit": "%"}, {"measurement": "viability, T/C", "setting": "second compound 0.000949 µM, first compound 10 µM", "value": 2.07, "unit": "%"}, {"measurement": "viability, T/C", "setting": "second compound 0.003 µM, first compound 0.0316 µM", "value": 0.19, "unit": "%"}, {"measurement": "viability, T/C", "setting": "second compound 0.003 µM, first compound 0.1 µM", "value": 0.16, "unit": "%"}, {"measurement": "viability, T/C", "setting": "second compound 0.003 µM, first compound 0.316 µM", "value": 0.17, "unit": "%"}, {"measurement": "viability, T/C", "setting": "second compound 0.003 µM, first compound 1 µM", "value": 0.16, "unit": "%"}, {"measurement": "viability, T/C", "setting": "second compound 0.003 µM, first compound 3.16 µM", "value": 0.16, "unit": "%"}, {"measurement": "viability, T/C", "setting": "second compound 0.003 µM, first compound 10 µM", "value": 0.37, "unit": "%"}]}]}
